This note sets out measurements from patent publication US20230107642A1 (Erasca, Inc., priority 2020, published 2023).

The target of one assay is T1, Cys12 of the KRAS 4B G12C protein (Homo sapiens, UniProt P01116, G12C).
T1 construct: This protein contained 188 amino acids in total, including an N-terminal 6-Histidine tag; made in house; host or cells: E. coli BL21
Nature of the assay: In vitro covalent adduct formation (CAF) assay, LC-MS intact mass. Format: binding. The settings on record: 10 uM compound, 60 min. Summed up:
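Percent covalent modification from intact-mass LC-MS, by relative free versus adducted protein (adducts within 1 Da of expected mass). Reaction: 10 μM compound with 5 μM E. coli-expressed, GDP-exchanged KRAS 4B G12C in TBS pH 7.4, 4% DMSO, 1 h at 22° C.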
`C=CC(=O)N1[C@@H]2CC[C@H]1CN(c1nc(=O)n3c4c(c(-c5cc(Cl)c(F)cc5F)c(C(F)(F)F)cc14)SC[C@@H]3CN1CCN(CC)CC1)C2` [Example 1403, (3S)-7-((1R,5S)-8-acryloyl-3,8-diazabicyclo[3.2.1]octan-3-yl)-10-(5-chloro-2,4-difluorophenyl)-3-((4-ethylpiperazin-1-yl)methyl)-9-(trifluoromethyl)-2,3-dihydro-5H-[1,4]thiazino[2,3,4-ij]quinazolin-5-one]: the “% CAF 10 uM @ 60 min” value turned out to be 80.3%. On the same count and under the same terms, with `C=CC(=O)N1C2CCC1CN(c1nc(=O)n3c4c(c(-c5cc(Cl)c(F)cc5F)c(C(F)(F)F)cc14)SCC1(COC1)C3)C2` [Example 1402, (S)-8′-((1R,5S)-8-acryloyl-3,8-diazabicyclo[3.2.1]octan-3-yl)-11′-(5-chloro-2,4-difluorophenyl)-10′-(trifluoromethyl)-2′H,4′H,6′H-spiro[oxetane-3,3′-[1,4]thiazepino[2,3,4-ij]quinazolin-6′-one] the figure was 6.8%. On to `C=CC(=O)N1C[C@H](C)N(c2nc(=O)n3c4c(c(-c5cc(Cl)c(F)cc5F)c(C(F)(F)F)cc24)SC[C@@H]3CN2CCN(C3CC3)CC2)C[C@H]1C` [Example 1307, (3S)-7-((2S,5R)-4-acryloyl-2,5-dimethylpiperazin-1-yl)-10-(5-chloro-2,4-difluorophenyl)-3-((4-cyclopropylpiperazin-1-yl)methyl)-9-(trifluoromethyl)-2,3-dihydro-5H-[1,4]thiazino[2,3,4-ij]quinazolin-5-one], for which the “% CAF 10 uM @ 60 min” value is reported as 69.7%. The same measure, in the same setting: with `C=CC(=O)N1C[C@H](C)N(c2nc(=O)n3c4c(c(-c5cc(Cl)c(F)cc5F)c(C(F)(F)F)cc24)SC[C@@H]3CN2C[C@@H]3C[C@H]2CO3)C[C@H]1C` (atropisomer, axis not shown) [Example 1335, (3S,10S)-3-(((1S,4S)-2-oxa-5-azabicyclo[2.2.1]heptan-5-yl)methyl)-7-((2S,5R)-4-acryloyl-2,5-dimethylpiperazin-1-yl)-10-(5-chloro-2,4-difluorophenyl)-9-(trifluoromethyl)-2,3-dihydro-5H-[1,4]thiazino[2,3,4-ij]quinazolin-5-one] the figure was 29.7%; with `C=CC(=O)N1[C@H](C)CN(c2nc(=O)n3c4c(c(-c5nc(N)ccc5I)c(C(F)(F)F)cc24)SC[C@@H]3COC)C[C@@H]1C` [Example 1449, (3S)-7-((3S,5R)-4-acryloyl-3,5-dimethylpiperazin-1-yl)-10-(6-amino-3-iodopyridin-2-yl)-3-(methoxymethyl)-9-(trifluoromethyl)-2,3-dihydro-5H-[1,4]thiazino[2,3,4-ij]quinazolin-5-one], 94%. Same read-out and setting: with `C=CC(=O)N1[C@H](C)CN(c2nc(=O)n3c4c(c(-c5ccc(F)cc5F)c(C(F)(F)F)cc24)SC[C@@H]3CN2C[C@@H]3C[C@H]2CO3)C[C@@H]1C` (atropisomer, axis not shown) [Example 1300, (3S,10S)-3-(((1S,4S)-2-oxa-5-azabicyclo[2.2.1]heptan-5-yl)methyl)-7-((3S,5R)-4-acryloyl-3,5-dimethylpiperazin-1-yl)-10-(2,4-difluorophenyl)-9-(trifluoromethyl)-2,3-dihydro-5H-[1,4]thiazino[2,3,4-ij]quinazolin-5-one] the figure was 90.8%; with `C=CC(=O)N1[C@H](C)CN(c2nc(=O)n3c4c(c(-c5cc(Br)c(F)cc5F)c(C(F)(F)F)cc24)SC[C@@H]3COC)C[C@@H]1C` (atropisomer, axis not shown) [Example 1448, (3S,10S)-7-((3S,5R)-4-Acryloyl-3,5-dimethylpiperazin-1-yl)-10-(5-bromo-2,4-difluorophenyl)-3-(methoxymethyl)-9-(trifluoromethyl)-2,3-dihydro-5H-[1,4]thiazino[2,3,4-ij]quinazolin-5-one], 95%; with `C=CC(=O)N1C[C@H](C)N(c2nc(=O)n3c4c(c(-c5ccc(F)c(Cl)c5)c(C(F)(F)F)cc24)SC[C@@H]3CN2CCN(C3CC3)CC2)C[C@H]1C` [Example 1387, (S)-7-((2S,5R)-4-acryloyl-2,5-dimethylpiperazin-1-yl)-10-(3-chloro-4-fluorophenyl)-3-((4-cyclopropylpiperazin-1-yl)methyl)-9-(trifluoromethyl)-2,3-dihydro-5H-[1,4]thiazino[2,3,4-ij]quinazolin-5-one], 71%. As for `C=CC(=O)N1C[C@H](C)N(c2nc(=O)n3c4c(c(-c5cc(Cl)c(F)cc5F)c(C(F)(F)F)cc24)SCC2(COC2)C3)C[C@H]1C` [Example 1357a], the “% CAF 10 uM @ 60 min” value is 74.3%.

Take `C=CC(=O)N1CCN(c2nc(=O)n3c4c(c(-c5c(F)cc(F)cc5F)c(C(F)(F)F)cc24)SC[C@@H]3COC)CC1` [Example 1379, (S)-7-(4-acryloylpiperazin-1-yl)-3-(methoxymethyl)-9-(trifluoromethyl)-10-(2,4,6-trifluorophenyl)-2,3-dihydro-5H-[1,4]thiazino[2,3,4-ij]quinazolin-5-one]: the “% CAF 10 uM @ 60 min” value is given as 96.7%.

In the case of `C=CC(=O)N1[C@H](C)CN(c2nc(=O)n3c4c(c(-c5cc(Cl)c(F)cc5F)c(C(F)(F)F)cc24)SCC(COC)(COC)C3)C[C@@H]1C` (atropisomer, axis not shown) [Example 1420, (S)-8-((3S,5R)-4-acryloyl-3,5-dimethylpiperazin-1yl)-11-(5-chloro-2,4-difluorophenyl)-3,3-bis(methoxymethyl)-10-(trifluoromethyl)-3,4-dihydro-2H,6H-[1,4]thiazepino[2,3,4-ij]quinazolin-6-one], the “% CAF 10 uM @ 60 min” value came out at 93%. Turning to `C=CC(=O)N1[C@H](C)CN(c2nc(=O)n3c4c(c(-c5ccc(F)cc5F)c(C(F)(F)F)cc24)SC[C@@H]3CN2CCN(C3CC3)CC2)C[C@@H]1C` (atropisomer, axis not shown) [Example 1347, (3S,10S)-7-((3S,5R)-4-acryloyl-3,5-dimethylpiperazin-1-yl)-3-((4-cyclopropylpiperazin-1-yl)methyl)-10-(2,4-difluorophenyl)-9-(trifluoromethyl)-2,3-dihydro-5H-[1,4]thiazino[2,3,4-ij]quinazolin-5-one], the “% CAF 10 uM @ 60 min” value came to 89.7%. Turning to `[2H]C1([2H])N(C(=O)C=C)C([2H])([2H])C([2H])([2H])N(c2nc(=O)n3c4c(c(-c5cc(Cl)c(F)cc5F)c(C(F)(F)F)cc24)SCC2(COC2)C3)C1([2H])[2H]` [Example 1309, 8′-(4-acryloylpiperazin-1-yl-2,2,3,3,5,5,6,6-d8)-11′-(5-chloro-2,4-difluorophenyl)-10′-(trifluoromethyl)-2′H,4′H,6′H-spiro[oxetane-3,3′-[1,4]thiazepino[2,3,4-ij]quinazolin]-6′-one], the “% CAF 10 uM @ 60 min” value amounted to 97%.

Staying with this assay, now noted: 10 uM compound, 60 min incubation.
Consider `C=CC(=O)N1CCN(c2nc(=O)n3c4c(c(-c5ccc(F)cc5F)c(C(F)(F)F)cc24)SCC2(COC2)C3)CC1` (atropisomer, axis not shown) [Example 1127, (R)-8′-(4-acryloylpiperazin-1-yl)-11′-(2,4-difluorophenyl)-10′-(trifluoromethyl)-2′H,4′H,6′H-spiro[oxetane-3,3′-[1,4]thiazepino [2,3,4-ij]quinazolin]-6′-one], for which the “% CAF 10 uM @ 60 min” value is reported as 95.3%.

As to `C=CC(=O)N1[C@H](C)CN(c2nc(=O)n3c4c(c(-c5ccc(F)cc5)c(C(F)(F)F)cc24)SCC2(COC2)C3)C[C@@H]1C` [Example 1117, 8′-((3S,5R)-4-acryloyl-3,5-dimethylpiperazin-1-yl)-11′-(4-fluorophenyl)-10′-(trifluoromethyl)-2′H,4′H,6′H-spiro[oxetane-3,3′-[1,4]thiazepino [2,3,4-ij]quinazolin]-6′-one], the “% CAF 10 uM @ 60 min” value came out at 96.9%.

Still in this assay, the particulars now being: 10 μM compound, after 1 hour.
Consider `C=CC(=O)N1C[C@H](C)N(c2nc(=O)n3c4c(c(-c5ccc(F)cc5)c(C(F)(F)F)cc24)SC[C@@H](OC)C3)C[C@H]1C` [Example 1202, (S)-8-((2S,5R)-4-acryloyl-2,5-dimethylpiperazin-1-yl)-11-(4-fluorophenyl)-3-methoxy-10-(trifluoromethyl)-3,4-dihydro-2H,6H-[1,4]thiazepino[2,3,4-ij]quinazolin-6-one], for which the “CAF (% after 1 hour)” value turned out to be 97%. Same read-out and setting: with `C=CC(=O)N1[C@H](C)CN(c2nc(=O)n3c4c(c(-c5cc(Cl)c(F)cc5F)c(C(F)(F)F)cc24)SCC2(CCC2)C3)C[C@@H]1C` [Example 1238, 8′-((3S,5R)-4-acryloyl-3,5-dimethylpiperazin-1-yl)-11′-(5-chloro-2,4-difluorophenyl)-10′-(trifluoromethyl)-2′H,4′H,6′H-spiro[cyclobutane-1,3′-[1,4]thiazepino[2,3,4-ij]quinazolin]-6′-one] the figure was 95%.

Still in this assay, the particulars now being: after 60 min.
Turning to `C=CC(=O)N1[C@H](C)CN(c2nc(=O)n3c4c(c(-c5cc(Cl)c(F)cc5F)c(C(F)(F)F)cc24)SC[C@@H](OCOC)C3)C[C@@H]1C` [Example 1015, (3S)-8-((3S,5R)-4-acryloyl-3,5-dimethylpiperazin-1-yl)-11-(5-chloro-2,4-difluorophenyl)-3-(methoxymethoxy)-10-(trifluoromethyl)-3,4-dihydro-2H,6H-[1,4]thiazepino[2,3,4-ij]quinazolin-6-one], the “CAF (% binding after 60 min)” value is reported as 84%.

In the case of `C=CC(=O)N1[C@H](C)CN(c2nc(=O)n3c4c(c(-c5ccc(F)cc5F)c(C(F)(F)F)cc24)SC[C@@H](OCOC)C3)C[C@@H]1C` [Example 1012, (3S)-8-((3S,5R)-4-acryloyl-3,5-dimethylpiperazin-1-yl)-11-(2,4-difluorophenyl)-3-(methoxymethoxy)-10-(trifluoromethyl)-3,4-dihydro-2H,6H-[1,4]thiazepino[2,3,4-ij]quinazolin-6-one], the “CAF (% binding after 60 min)” value amounted to 95%.
